Source: ChEMBL document CHEMBL5356944, “Pharmacological overview of hederagenin and its derivatives” (RSC Med Chem, 2023)
In brackets after ≈: the same amount, converted by molar mass.

What was measured:
LoVo [1] = assay: Antiproliferative activity against human LoVo cells assessed as reduction in cell viability incubated for 48 hrs by MTT assay; assay type: functional, cell-based
Enterococcus faecalis = assay: Antibacterial activity against Enterococcus faecalis assessed as reduction in bacterial cell growth; assay type: functional
Staphylococcus aureus = assay: Antibacterial activity against Staphylococcus aureus KCTC 503 assessed as reduction in bacterial growth; assay type: functional
A549 [2] = assay: Inhibition of colony formation in human A549 cells measured after 24 to 48 hrs by crystal violet staining based analysis; assay type: functional; conditions: time 24-48 hrs
[3] = Tmax in rat plasma; assay type: ADME, cell-free
NCI-H1299 = assay: Inhibition of colony formation in human NCI-H1299 cells assessed as reduction in number of colonies measured after 24 to 48 hrs by crystal violet staining based assay; assay type: functional; conditions: time 24-48 hrs
Streptococcus mutans = assay: Antibacterial activity against Streptococcus mutans ATCC 25175 assessed as reduction in microbial growth after 24 hrs by agar well diffusion assay; assay type: functional
A549 [4] = assay: Cytotoxicity against human A549 cells assessed as reduction in cell growth incubated for 48 hrs by Alamar blue assay; assay type: functional, cell-based; conditions: A549, 48 h
A549 [5] = assay: Cytotoxicity against human A549 cells assessed as reduction in cell viability measured after 24 hrs by MTT assay; assay type: functional, cell-based; conditions: A549, 24 h
[6] = Half life in rat plasma; assay type: ADME, cell-free
BT-20 = assay: Cytotoxicity against human BT-20 cells assessed as reduction in cell viability incubated for 48 hrs by Alamar blue assay; assay type: functional, cell-based; conditions: BT-20, 48 h
HeLa = assay: Antiproliferative activity against human HeLa cells assessed as reduction in cell viability measured after 72 hrs by MTT assay; assay type: functional, cell-based
[7] = Anticancer activity against human KBV cells assessed as cell survival rate in presence of paclitaxel
HepG2 = assay: Antiproliferative activity against human HepG2 cells assessed as reduction in cell viability after 48 hrs by MTT assay; assay type: functional, cell-based; conditions: HepG2, 48 h
Toxoplasma gondii = assay: Antiparasitic activity against Toxoplasma gondii infected in human HeLa cells assessed as inhibition of cell growth relative to control; assay type: functional
[8] = Elimination rate constant in rat plasma; assay type: ADME, cell-free
LoVo [9] = assay: Antiproliferative activity against human LoVo cells assessed as reduction in cell viability incubated for 24 hrs by MTT assay; assay type: functional, cell-based
HT-1080 = assay: Cytotoxicity against human HT-1080 cells assessed as reduction in cell viability measured after 72 hrs by MTT assay; assay type: functional, cell-based; conditions: HT-1080, 72 h
T47D = assay: Cytotoxicity against human T47D cells assessed as reduction in cell viability measured after 72 hrs by MTT assay; assay type: functional, cell-based
MCF7 = assay: Cytotoxicity against human MCF7 cells assessed as reduction in cell viability measured after 72 hrs by MTT assay; assay type: functional, cell-based; conditions: MCF7, 72 h
A549 [10] = assay: Cytotoxicity against human A549 cells assessed as reduction in cell viability measured after 72 hrs by MTT assay; assay type: functional, cell-based; conditions: A549, 72 h
RAW264.7 [11] = assay: Antiinflammatory activity in mouse RAW264.7 cells assessed as inhibition of LPS/IFNgamma-induced nitric oxide production; assay type: functional
A-431 = assay: Cytotoxicity against human A-431 cells assessed as reduction in cell viability measured after 72 hrs by MTT assay; assay type: functional, cell-based; conditions: A-431, 72 h
HL-60 = assay: Cytotoxicity against human HL-60 cells assessed as reduction in cell viability measured after 72 hrs by MTT assay; assay type: functional, cell-based; conditions: HL-60, 72 h
Leishmania mexicana = assay: Antileishmanial activity against Leishmania mexicana amastigotes assessed as effective dose; conditions: read-out: ED50 (the source's name)
RAW264.7 [12] = assay: Anti-inflammatory activity against mouse RAW264.7 cells assessed as inhibition of LPS-induced NO production; assay type: functional, cell-based
A549 [13] = assay: Antitumor activity against human A549 cells assessed as cell growth inhibition
[14] = Anticancer activity against human KBV cells xenografted in nude mouse assessed as reduction in tumor weight at 10 mg/kg relative to control; assay type: functional; parameters: scale not given: the % may be the effect or the level left
[15] = Cytotoxicity against mouse L929 cells assessed as reduction in cell viability; assay type: toxicity, cell-based

CC1(C)CC[C@]2(C(=O)O)CC[C@]3(C)C(=CC[C@@H]4[C@@]5(C)CC[C@H](O)[C@@](C)(CO)[C@@H]5CC[C@]43C)[C@@H]2C1 [HEDERAGENIN]
IC50 (LoVo [1]): 1.17 µM | MIC (Enterococcus faecalis): 128 µg/mL (≈ 271 µM) | MIC (Staphylococcus aureus): 16 µg/mL (≈ 33.8 µM) | INH (A549 [2]): 10 µM | Tmax [3]: 18.3 min | INH (NCI-H1299): 20 µM | MIC (Streptococcus mutans): 9.7 µg/mL | IC50 (A549 [4]): 26.2 µM | IC50 (A549 [5]): > 50 µM | half-life [6]: 44.1 min | IC50 (BT-20): 11.8 µM | IC50 (HeLa): 17.4 µg/mL (≈ 36.9 µM) | Activity [7]: 149.47% | IC50 (HepG2): 35.9 µM | inhibition (INH) (Toxoplasma gondii): 64.8% | Kel [8]: 0.96 h⁻¹ | IC50 (LoVo [9]): 1.39 µM

COC(=O)[C@]12CCC(C)(C)C[C@H]1C1=CC[C@@H]3[C@@]4(C)C=C(C#N)C(=O)[C@@](C)(CO)[C@@H]4CC[C@@]3(C)[C@]1(C)CC2
EC50 (HT-1080): 3.03 µM | EC50 (T47D): 3.91 µM | EC50 (MCF7): 2.25 µM | EC50 (A549 [10]): 7.94 µM | Activity (RAW264.7 [11]): 1.6 µM | EC50 (A-431): 1.7 µM | EC50 (HL-60): 0.548 µM

CC1(C)CC[C@]2(C(=O)O)CC[C@]3(C)C(=CC[C@@H]4[C@@]5(C)CC[C@@H]6OC(C)(C)OC[C@@]6(C)[C@@H]5CC[C@]43C)[C@@H]2C1
EC50 (Leishmania mexicana): 83.6 µM

C[C@]12CC[C@H](O)[C@@](C)(CO)[C@@H]1CC[C@]1(C)[C@@H]2CC=C2[C@@H]3C[C@](C)(C(=O)O)[C@@H](O)C[C@]3(C(=O)O)CC[C@]21C
IC50 (RAW264.7 [12]): 0.078 µM

CC(=O)OC[C@H](OC(C)=O)[C@H](OC(C)=O)[C@@H](OC(C)=O)[C@@H]1OC[C@@]2(C)[C@@H]3CC[C@]4(C)[C@H](CC=C5[C@@H]6CC(C)(C)CC[C@]6(C(=O)O)CC[C@]54C)[C@@]3(C)CC[C@@H]2O1
EC50 (Leishmania mexicana): 7.2 µM

CC1(C)CC[C@]2(C(=O)OCc3ccccc3)CC[C@]3(C)C(=CC[C@@H]4[C@@]5(C)CC[C@@H]6O[C@H]([C@H](OCc7ccccc7)[C@@H](OCc7ccccc7)[C@H](COCc7ccccc7)OCc7ccccc7)OC[C@@]6(C)[C@@H]5CC[C@]43C)[C@@H]2C1
EC50 (Leishmania mexicana): 4.5 µM

C[C@H](O)[C@H]1OC(CC2OC[C@@]3(C)[C@@H]4CC[C@]5(C)[C@H](CC=C6[C@@H]7CC(C)(C)CC[C@]7(C(=O)O)CC[C@]65C)[C@@]4(C)CC[C@@H]3O2)[C@@H](O)[C@@H]1O (some centres undefined)
EC50 (Leishmania mexicana): 10.3 µM

C[C@@H]1O[C@@H](O[C@H]2[C@H](O[C@H]3CC[C@@]4(C)[C@@H](CC[C@]5(C)[C@@H]4CC=C4[C@@H]6CC(C)(C)CC[C@]6(C(=O)O)CC[C@]45C)[C@]3(C)CO)OC[C@H](O[C@@H]3O[C@H](CO)[C@@H](O)[C@H](O)[C@H]3O)[C@@H]2O)[C@H](O)[C@H](O)[C@H]1O [HEDERACOLCHISIDE A]
IC50 (A549 [13]): 5.8 µM

CC1(C)CC[C@]2(C(=O)O)CC[C@]3(C)C(=CC[C@@H]4[C@@]5(C)CC[C@H](O)[C@@](C)(C=O)[C@@H]5CC[C@]43C)[C@@H]2C1
EC50 (Leishmania mexicana): 9.6 µM

CC1(C)CC[C@]2(NC(=O)N3CCCC3)CC[C@]3(C)C(=CC[C@@H]4[C@@]5(C)CC[C@@H]6OC(C)(C)OC[C@@]6(C)[C@@H]5CC[C@]43C)[C@@H]2C1
EC50 (Leishmania mexicana): 92 µM

CC1(C)CC[C@]2(C(=O)OCc3ccccc3)CC[C@]3(C)C(=CC[C@@H]4[C@@]5(C)Cc6nccnc6[C@@](C)(CO)[C@@H]5CC[C@]43C)[C@@H]2C1
Activity [14]: 41.88% | Activity [7]: 25.34%

O=c1[nH]cc(F)c(=O)[nH]1 [FLUOROURACIL]
IC50 (HepG2): 16.4 µM

COC(=O)[C@]12CCC(C)(C)C[C@H]1C1/C(=N/O)C[C@@H]3[C@@]4(C)CC[C@H](OC(C)=O)[C@@](C)(COC(C)=O)[C@@H]4CC[C@@]3(C)[C@]1(C)CC2 (some centres undefined)
IC50 [15]: 21.2 µM | IC50 (HepG2): 1.88 µM

CC1(C)CC[C@]2(N=C=O)CC[C@]3(C)C(=CC[C@@H]4[C@@]5(C)CC[C@@H]6OC(C)(C)OC[C@@]6(C)[C@@H]5CC[C@]43C)[C@@H]2C1
EC50 (Leishmania mexicana): 0.9 µM

CC(=O)OC[C@@]1(C)[C@@H]2CC[C@]3(C)[C@H](CC=C4[C@@H]5CC(C)(C)CC[C@]5(NC(=O)N5CCCC5)CC[C@]43C)[C@@]2(C)CC[C@@H]1O
EC50 (Leishmania mexicana): 10.4 µM

Cc1cncc(C(=O)OCCOC(=O)[C@]23CCC(C)(C)C[C@H]2C2=CC[C@@H]4[C@@]5(C)CC[C@H](O)[C@@](C)(CO)[C@@H]5CC[C@@]4(C)[C@]2(C)CC3)n1
IC50 (A549 [5]): 3.45 µM

CC1(C)CC[C@]2(NC(=O)N3CCC[C@H]3C(=O)O)CC[C@]3(C)C(=CC[C@@H]4[C@@]5(C)CC[C@@H]6OC(C)(C)OC[C@@]6(C)[C@@H]5CC[C@]43C)[C@@H]2C1
EC50 (Leishmania mexicana): 81.1 µM

CC1(C)CC[C@]2(C(=O)OCc3ccccc3)CC[C@]3(C)C(=CC[C@@H]4[C@@]5(C)CC[C@@H]6O[C@H]([C@H]7O[C@H](O)[C@H](O)[C@@H](O)[C@@H]7O)OC[C@@]6(C)[C@@H]5CC[C@]43C)[C@@H]2C1
EC50 (Leishmania mexicana): 6 µM

CC1(C)CC[C@]2(C(=O)O)CC[C@]3(C)C(=CC[C@@H]4[C@@]5(C)CC[C@@H]6O[C@H](c7ccccc7)OC[C@@]6(C)[C@@H]5CC[C@]43C)[C@@H]2C1
EC50 (Leishmania mexicana): 10 µM

COC(=O)[C@]12CCC(C)(C)C[C@H]1C1=CC[C@@H]3[C@@]4(C)CC[C@@H]5O[C@H](c6ccccc6)OC[C@@]5(C)[C@@H]4CC[C@@]3(C)[C@]1(C)CC2
EC50 (Leishmania mexicana): 2.9 µM
